Source: patent US20240156790A1, “COMPOUNDS, COMPOSITIONS, AND METHODS FOR MODULATING FERROPTOSIS AND TREATING EXCITOTOXIC DISORDERS” (THE TRUSTEES OF COLUMBIA UNIVERSITY IN THE CITY OF NEW YORK, priority 2018, published 2024)
Like-named read-outs stand apart in the source and are kept apart here.

Assays:
[1] = PHB4082 IP, IV Study (cyclodextrin/PEG/tween vehicle); assay type: in vivo, C57BL/6 mice; details: both sexes, C57BL/6, mouse; for concentration at 2 h / concentration at 4 h: 10 mg/kg
Description: C57BL/6 mice (8-weeks of age and ˜25 g weight) were weighed before injection and divided into groups of two male and female mice per cage. PHB4082 was dissolved in 5% DMSO/95% of 1:1 [(65% v/v of 25% w/v 2-hydroxypropyl-3-cyclodextrin (Cayman Chemical) dissolved in 20% EtOH, 30% v/v Poly(ethylene glycol)-400 (Sigma Aldrich 202398), 5% v/v Tween 80 (Fluka 59924)):MilliQ water] to create a 2 mg/mL solution. The same formulation without PHB4082 was used as a vehicle control. The solution was sterilized using a […] Steriflip filter unit (Thomas Scientific 1189Q46). Mice were dosed IP, and IV routes of administration and euthanized by CO2 asphyxiation for 3 min at 2 and 4 h after administration. To ensure that the vehicle was well-tolerated, four mice for each timepoint were treated with vehicle and euthanized 4 h and 24 h after administration. ˜0.5 mL of blood was collected via cardiac puncture and immediately put in K3 EDTA microtubes ([…] 41.1504.105) and kept on ice. Organs were harvested, placed in Eppendorf tubes, and frozen on dry ice. Blood samples were centrifuged for 10 min at 2,100×g at 4° C., then plasma was transferred to a clean tube and frozen on dry ice. Organ samples were weighed and placed in hard tissue homogenizing tubes (Omni International 19-628) and a volume of DEPC-treated nuclease-free water (IBI Scientific IB42200) was added to make a 500 mg/mL solution and homogenized using the Omni Bead Ruptor 4 at speed 5 for 30 seconds. Compound was extracted from plasma or organ homogenate by adding 900 μL acetonitrile to 100 μL plasma or organ homogenate. Samples were mixed by vortexing and allowed to extract overnight at 4° C. prior to mixing for at least 5 min by rotating at room temperature, vortexing, and sonicating for at least 30 second prior to centrifugation for 10 min at 4,000×g and 4° C. The supernatant was then transferred to a glass vial and analyzed by UPLC-MS described below. The base peak chromatogram was integrated and quantified by standard curve concurrently ran.
To determine whether PHB4082 accumulated in brain preferentially over plasma, the log10(Brain/Plasma) ratio was calculated for each time-point with a log10(Brain/Plasma) >0 indicating preferential accumulation in brain over plasma. We observed that PHB4082 did slightly accumulate in brain over plasma as time progressed (FIG. 21B); however, at the time-point where PHB4082 preferentially accumulated in brain, the difference in concentration in the brain compared to plasma was low, indicated by the near 0 log values.

[2] = Microsomal stability, pig (Table 1); assay type: in vitro ADME; details: liver microsomes; Pig: Göttingen Minipig; read-out: Microsomal Stability t1/2
[3] = In vivo pharmacokinetic study of TH-4-55-2 in drinking water (four days); design: species or system R6/2 mice; details: both sexes, R6/2, mouse, brain, oral, 20-30 mg/kg/day, 4-day treatment, read-out: concentration in brain samples
Description: TH-4-55-2 and 42 uM Citric acid were dissolved in 5% DMSO, 5% ethanol, and 90% PBS rendering a final concentration of 0.29 mg/mL Th-4-55-2 in drinking water. The mice drink ˜2 mL water per day, and the resulting dosage was around 20-30 mg/kg/day. C57BL/6 mice at ˜8 weeks of age were treated using drinking water daily for four days. 6 mice were randomly picked, weighed daily, the weight recorded, and the change in body weight compared to the baseline, pre-injection weight was calculated. Any mouse that lost more than 20% of its baseline body weight for three consecutive days was euthanized prior to the completion of the study. Mice were euthanized by CO2 asphyxiation for 3 min after administration. Approximately 0.5 mL of blood was collected via cardiac puncture and immediately put in K3 EDTA microtubes and kept on ice. Brains were harvested, placed in Eppendorf tubes, and frozen on dry ice. […]
Prior to LC-MS analysis, the samples were resuspended in 100 μL methanol and centrifuged for 5 minutes at 14,000×g at 4° C. The supernatant was analyzed via SYNAPT High Resolution Mass Spectrometer.
Samples from animal studies were analyzed via UPLC-MS using a Waters SYNAPT XS Mass spectrometer equipped with an Acquity UPLC. […] All samples were injected twice and the base peak chromatogram was integrated and quantified by a standard curve concurrently ran using MassLynx software and exported. […]

[4] = brain, IP Administration, read-out: [PHB4082]brain
[5] = brain, IV Administration, read-out: [PHB4082]brain
[6] = plasma, IP Administration, read-out: [PHB4082]plasma
[7] = plasma, IV Administration, read-out: [PHB4082]plasma

## Cc1noc(-c2ccc(NC3CCCCC3)c(NC3CCCCC3)c2)n1 [PHB4082, N1,N2-dicyclohexyl-4-(3-methyl-1,2,4-oxadiazol-5-yl)benzene-1,2-diamine]
[1]; brain and plasma, other: intraperitoneally and intravenously, 10 mg/kg intraperitoneally and intravenously
  log10 Kp (brain/plasma): < 0
[1]; [4]
  concentration at 2 h: 114 ± 21 nM
  concentration at 4 h: 99 ± 62 nM
[1]; [5]
  concentration at 2 h: 557 ± 245 nM
  concentration at 4 h: 176 ± 76 nM
[1]; [6]
  concentration at 4 h: 306 ± 379 nM
  concentration at 2 h: 957 ± 693 nM
[1]; [7]
  concentration at 2 h: 634 ± 359 nM
  concentration at 4 h: 281 ± 284 nM

## CCOC(=O)c1ccc(NC2CCCCC2)c(N)c1 [Fer-1, Ferrostatin-1, reference compound]
[2]
  half-life: 16.2 min

## CCC(CC)Nc1cc(-c2nc(C)no2)cnc1NC1CCCCC1 [TH-4-55-2, N^2-cyclohexyl-5-(3-methyl-1,2,4-oxadiazol-5-yl)-N^3-(pentan-3-yl)pyridine-2,3-diamine]
[3]
  concentration at 4 days: 1500 to 33000 nM
